Laboratory results: publication PMC10221314 (Pharmaceuticals, 2023)
Several values for one entry are separate records, joined by “and”; a condition that tells them apart may be missing. Identical values can stand only once.

Target: T1, FXR (Homo sapiens, UniProt Q96RI1)
T1 construct: a fusion plasmid of Gal4 DBD-NR-LBD, which included PPARα, PPARβ, PPARγ, RXRα, RXRβ, RXRγ, LXRα, LXRβ, GPBAR, PXR, and FXR; expressed in transfected cells; host or cells: HEK-293T
T1 sequence (Q96RI1 262-486 limits assumed): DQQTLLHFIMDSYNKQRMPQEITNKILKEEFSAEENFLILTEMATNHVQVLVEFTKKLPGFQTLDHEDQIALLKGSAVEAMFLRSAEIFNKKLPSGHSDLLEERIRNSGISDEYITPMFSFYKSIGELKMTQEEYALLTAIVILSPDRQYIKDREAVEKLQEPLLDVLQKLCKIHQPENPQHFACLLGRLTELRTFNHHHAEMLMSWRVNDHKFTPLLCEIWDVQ
Assay: Yeast one-hybrid assay of FXR antagonistic activity in HEK-293T cells
Type: cell-based
Settings: HEK-293T cells; CDCA (50 μM) as agonist; mean ± SE of three independent tests
Method: Cell counting: HEK-293T cells in logarithmic growth phase were digested with 0.25% trypsin, collected, and centrifuged. The trypsin-containing medium was discarded, and 2 mL of fresh phenol red-free DMEM medium containing 5% fetal bovine serum was added. The cells were then mixed with the medium to prepare a cell suspension and counted on a cell counting plate.
Cell plating: A determined number of cells were taken from the cell suspension, diluted with phenol red-free DMEM medium containing 5% fetal bovine serum, and plated at a concentration of 10,000 cells per well (100 µL medium) in a 96-well plate. The plate was then incubated at 37 °C and 5% CO2 for 24 h.
Cell transfection: Fresh phenol red-free DMEM medium was taken in a sterile environment, and the previously extracted pFXR-Binding plasmid and PG4.35[luc2P-9XGA4UAS-Hygro] plasmid were added. The mixture was stirred and allowed to stand at 23 °C for 3 min. Then, a 3% amount of transfection reagent was added to the mixture, and it was allowed to stand at 23 °C for 15 min. The mixture was then added to the 96-well plate at a volume of 10 µL per well and incubated at 37 °C in a 5% CO2 environment for 24 h.
The OA derivatives were prepared as 10 mM DMSO stock solutions and further diluted in a concentration gradient, with 10 µL added to each well. The final concentrations of the derivatives ranged from 10 µM to 0.03 µM, with 7 concentration gradients using […] dilution. The test was set with 3 duplicated wells.
Antagonism activity test: The firefly-Renilla Dual Fluorescence Assay Kit (Promega, #E2940, Madison, WI, USA) was used to measure the antagonism activity of the OA derivatives. Firstly, the firefly fluorescence reagent was added to the 96-well plate at a volume of 70 µL per well and shaken in darkness for 15 min. Then, the fluorescence intensity was measured at a wavelength of 645 ± 30 nm in a microplate reader (BioTek, Winooski, VT, USA). Next, the volume of Renilla reagent was added to the 96-well plate at a volume of 70 µL per well and shaken in darkness for 15 min. The fluorescence intensity was then measured at a wavelength of 525 ± 20 nm.
Data processing: The fluorescence data of firefly were divided by the fluorescence data of Renilla to remove errors, and the antagonism efficiency was calculated using the following formula: antagonism efficiency (%) = [1 − (FCompds. − FDMSO)/(FCDCA − FDMSO)] × 100%. In the formula, F represents fluorescence intensity. The antagonistic efficiency data were obtained as a concentration–effect curve using Graphpad Prism 8.0 software, and the corresponding IC50 value was calculated.

Row | SMILES | IC50
1 | CCOC(=O)NC(CCC(=O)OC1CC2C3(C)CCC(O)C(C)(C)C3CCC2(C)C2(C)CCC3(C(=O)O)CCC(C)(C)CC3C12)C(=O)OC(C)(C)C [Compound 19b, 3β-hydroxy-12β-(4′-((ethoxycarbonyl)amide)-5′-(tert-butoxy)-L-glutamate)oxy-13H-olean-28-oic acid] | 570 ± 360 nM
2 | CC(C)COC(=O)NC(CCC(=O)OC1CC2C3(C)CCC(O)C(C)(C)C3CCC2(C)C2(C)CCC3(C(=O)O)CCC(C)(C)CC3C12)C(=O)OC(C)(C)C [Compound 19e, 3β-hydroxy-12β-(4′-((isobutoxycarbonyl)amide)-5′-(tert-butoxy)-L-glutamate)oxy-13H-olean-28-oic acid] | 920 ± 140 nM
3 | CC(C)OC(=O)C(CCC(=O)OC1CC2C3(C)CCC(O)C(C)(C)C3CCC2(C)C2(C)CCC3(C(=O)O)CCC(C)(C)CC3C12)NC(=O)OC(C)(C)C [Compound 20d, 3β-hydroxy-12β-(4′-((tert-butoxycarbonyl)amide)-5′-isopropoxy-L-glutamate)oxy-13H-olean-28-oic acid] | 550 ± 90 nM
4 | CC1(C)CC[C@]2(C(=O)O)CC[C@]3(C)[C@H]([C@H](OC(=O)CC[C@H](N)C(=O)O)CC4[C@@]5(C)CC[C@H](O)C(C)(C)C5CC[C@]43C)[C@@H]2C1 (stereo partly drawn) [Compound 11c, 3-hydroxy-12β-((S)-4′-amino-4′-carboxybutanoyl)oxy-13H-olean-28-oic acid] | 21300 ± 2600 nM
5 | CCCOC(=O)C(CCC(=O)OC1CC2C3(C)CCC(O)C(C)(C)C3CCC2(C)C2(C)CCC3(C(=O)O)CCC(C)(C)CC3C12)NC(=O)OC(C)(C)C [Compound 20c, 3β-hydroxy-12β-(4′-((tert-butoxycarbonyl)amide)-5′-propoxy-L-glutamate)oxy-13H-olean-28-oic acid] | 560 ± 130 nM
6 | CC1(C)CC[C@]2(C(=O)O)CC[C@]3(C)[C@H]([C@H](OC(=O)C[C@@H](NC(=O)OC(C)(C)C)C(=O)OC(C)(C)C)CC4[C@@]5(C)CC[C@H](O)C(C)(C)C5CC[C@]43C)[C@@H]2C1 (stereo partly drawn) [Compound 9b, 3-hydroxy-12β-(3′-((tert-butoxycarbonyl)amino)-4′-(tert-butoxy)-D-aspartate)oxy-13H-olean-28-oic acid] | 2390 ± 350 nM
7 | CC1(C)CC[C@]2(C(=O)O)CC[C@]3(C)[C@H]([C@H](OC(=O)[C@@H](CCC(=O)OC(C)(C)C)NC(=O)OC(C)(C)C)CC4[C@@]5(C)CC[C@H](O)C(C)(C)C5CC[C@]43C)[C@@H]2C1 (stereo partly drawn) [Compound 10d, 3-hydroxy-12β-(2′-((tert-butoxycarbonyl)amino)-5′-(tert-butoxy)-D-glutamate)oxy-13H-olean-28-oic acid] | 3670 ± 390 nM
8 | CCC(C)OC(=O)C(CCC(=O)OC1CC2C3(C)CCC(O)C(C)(C)C3CCC2(C)C2(C)CCC3(C(=O)O)CCC(C)(C)CC3C12)NC(=O)OC(C)(C)C [Compound 20f, 3β-hydroxy-12β-(4′-((tert-butoxycarbonyl)amide)-5′-(sec-butoxy)-L-glutamate)oxy-13H-olean-28-oic acid] | 1010 ± 180 nM
9 | CC1(C)CC[C@]2(C(=O)O)CC[C@]3(C)[C@H]([C@H](OC(=O)CC[C@H](NC(=O)OC(C)(C)C)C(=O)O)CC4[C@@]5(C)CC[C@H](O)C(C)(C)C5CC[C@]43C)[C@@H]2C1 (stereo partly drawn) [Compound 11b, 3-hydroxy-12β-((S)-4′-((tert-butoxycarbonyl)amino)-4′-carboxybutanoyl)oxy-13H-olean-28-oic acid] | 7650 ± 350 nM
10 | CC1(C)CCC2(C(=O)O)CCC3(C)C(C(OC(=O)CCC(NC(=O)OC(C)(C)C)C(=O)OC4CCCC4)CC4C5(C)CCC(O)C(C)(C)C5CCC43C)C2C1 [Compound 20g, 3β-hydroxy-12β-(4′-((tert-butoxycarbonyl)amide)-5′-cyclopentyloxy-L-glutamate)oxy-13H-olean-28-oic acid] | 820 ± 110 nM
11 | CC1(C)CCC2(C(=O)O)CCC3(C)C(C(OC(=O)CCC(NC(=O)OC4CCCC4)C(=O)OC(C)(C)C)CC4C5(C)CCC(O)C(C)(C)C5CCC43C)C2C1 [Compound 19g, 3β-hydroxy-12β-(4′-(((cyclopentyloxy)carbonyl)amide)-5′-(tert-butoxy)-L-glutamate)oxy-13H-olean-28-oic acid] | 720 ± 180 nM
12 | CCC(C)OC(=O)NC(CCC(=O)OC1CC2C3(C)CCC(O)C(C)(C)C3CCC2(C)C2(C)CCC3(C(=O)O)CCC(C)(C)CC3C12)C(=O)OC(C)(C)C [Compound 19f, 3β-hydroxy-12β-(4′-((sec-butoxycarbonyl)amide)-5′-(tert-butoxy)-L-glutamate)oxy-13H-olean-28-oic acid] | 600 ± 40 nM
13 | COC(=O)NC(CCC(=O)OC1CC2C3(C)CCC(O)C(C)(C)C3CCC2(C)C2(C)CCC3(C(=O)O)CCC(C)(C)CC3C12)C(=O)OC(C)(C)C [Compound 19a, 3β-hydroxy-12β-(4′-((methoxycarbonyl)amide)-5′-(tert-butoxy)-L-glutamate)oxy-13H-olean-28-oic acid] | 550 ± 220 nM
14 | CCOC(=O)C(CCC(=O)OC1CC2C3(C)CCC(O)C(C)(C)C3CCC2(C)C2(C)CCC3(C(=O)O)CCC(C)(C)CC3C12)NC(=O)OC(C)(C)C [Compound 20b, 3β-hydroxy-12β-(4′-((tert-butoxycarbonyl)amide)-5′-ethoxy-L-glutamate)oxy-13H-olean-28-oic acid] | 1020 ± 210 nM
15 | CC1(C)CC[C@]2(C(=O)O)CC[C@]3(C)[C@H]([C@H](OC(=O)CC[C@@H](NC(=O)OC(C)(C)C)C(=O)OC(C)(C)C)CC4[C@@]5(C)CC[C@H](O)C(C)(C)C5CC[C@]43C)[C@@H]2C1 (stereo partly drawn) [Compound 10a, 3-hydroxy-12β-(4′-((tert-butoxycarbonyl)amino)-5′-(tert-butoxy)-D-glutamate)oxy-13H-olean-28-oic acid] | 1950 ± 270 nM
16 | CC1(C)CCC2(C(=O)O)CCC3(C)C(C(OC(=O)CCC(NC(=O)Oc4ccccc4)C(=O)OC(C)(C)C)CC4C5(C)CCC(O)C(C)(C)C5CCC43C)C2C1 [Compound 19h, 3β-hydroxy-12β-(4′-((phenoxycarbonyl)amide)-5′-(tert-butoxy)-L-glutamate)oxy-13H-olean-28-oic acid] | 2220 nM and 2180 nM
17 | CC1(C)CC[C@]2(C(=O)O)CC[C@]3(C)[C@H]([C@H](OC(=O)CC[C@H](N)C(=O)OC(C)(C)C)CC4[C@@]5(C)CC[C@H](O)C(C)(C)C5CC[C@]43C)[C@@H]2C1 (stereo partly drawn) [Compound 11a, 3-hydroxy-12β-((S)-4′-amino-5′-(tert-butoxy)-5-oxopentanoyl)oxy-13H-olean-28-oic acid] | 2950 ± 680 nM
18 | CC1(C)CC[C@]2(C(=O)O)CC[C@]3(C)[C@H]([C@H](OC(=O)C[C@H](NC(=O)OC(C)(C)C)C(=O)OC(C)(C)C)CC4[C@@]5(C)CC[C@H](O)C(C)(C)C5CC[C@]43C)[C@@H]2C1 (stereo partly drawn) [Compound 9a, 3-hydroxy-12β-(3′-((tert-butoxycarbonyl)amino)-4′-(tert-butoxy)-L-aspartate)oxy-13H-olean-28-oic acid] | 950 ± 140 nM
19 | CCCOC(=O)NC(CCC(=O)OC1CC2C3(C)CCC(O)C(C)(C)C3CCC2(C)C2(C)CCC3(C(=O)O)CCC(C)(C)CC3C12)C(=O)OC(C)(C)C [Compound 19c, 3β-hydroxy-12β-(4′-((propoxycarbonyl)amide)-5′-(tert-butoxy)-L-glutamate)oxy-13H-olean-28-oic acid] | 400 to 500 nM and 450 nM
20 | CC(C)OC(=O)NC(CCC(=O)OC1CC2C3(C)CCC(O)C(C)(C)C3CCC2(C)C2(C)CCC3(C(=O)O)CCC(C)(C)CC3C12)C(=O)OC(C)(C)C [Compound 19d, 3β-hydroxy-12β-(4′-((isopropoxycarbonyl)amide)-5′-(tert-butoxy)-L-glutamate)oxy-13H-olean-28-oic acid] | 400 to 500 nM and 470 nM
21 | COC(=O)C(CCC(=O)OC1CC2C3(C)CCC(O)C(C)(C)C3CCC2(C)C2(C)CCC3(C(=O)O)CCC(C)(C)CC3C12)NC(=O)OC(C)(C)C [Compound 20a, 3β-hydroxy-12β-(4′-((tert-butoxycarbonyl)amide)-5′-methoxy-L-glutamate)oxy-13H-olean-28-oic acid] | 1100 ± 190 nM
22 | CC(C)COC(=O)C(CCC(=O)OC1CC2C3(C)CCC(O)C(C)(C)C3CCC2(C)C2(C)CCC3(C(=O)O)CCC(C)(C)CC3C12)NC(=O)OC(C)(C)C [Compound 20e, 3β-hydroxy-12β-(4′-((tert-butoxycarbonyl)amide)-5′-isobutoxy-L-glutamate)oxy-13H-olean-28-oic acid] | 1000 ± 170 nM
